According to patent US10137185B2, “PAP peptide analogues” (THE NOTTINGHAM TRENT UNIVERSITY, priority 2014, dated 2018):
Several values for one entry are separate records, joined by “and”; a condition that tells them apart may be missing. Equal entries are not always repeated.

Tested on: PBMCs isolated from patients with prostate cancer
Experiment: IFNγ ELISPOT of pre- and post-vaccination PBMCs, Norway clinical trial (mRNA-transfected DC vaccine)
Format: cell-based, human
Details: for post-vaccination samples with significantly higher peptide-specific IFNγ response than pre-vaccination: of 8 responder samples, 48 hours
From the text: FIG. 4. The flow chart of Norway clinical trial. Monocytes were isolated from patients with prostate cancer and cultured in vitro. mRNA isolated from the prostate cancer cell lines DU145, LNCAP and PC3 were transfected into immature dendritic cells (DCs). The DCs were then allowed to mature and were re-infused back into the patient. PBMCs isolated a week before (pre-vaccination) and 12 weeks after immunisations (post-vaccination) were used in this study. The patients were categorised as responders and non-responders based on the PSA levels and also metastatic state of the disease based on bone scans post immunisation.
FIG. 5. IFNγ response of PBMCs isolated from patients with prostate cancer who had responded to the therapy and were categorised as being ‘responders’ on the basis of the criteria detailed above (Norway Clinical Trial) after re-stimulation with PAP-115-123 epitope peptide (10 μg), as determined using the ELISPOT assay. PBMCs isolated pre-vaccination (black bars) and post vaccination (red bars) are compared. Patient samples are represented as p10, p12, p15 etc. The cryopreserved PBMCs were washed and rested overnight, at which time 4×10^4 cells were added to each well of an ELISPOT plate. PAP-115-123 epitope peptide (10 μg) was added to each well and the cells cultured for 48 hours. The plates were then washed according to the manufacturer's protocol. PBMCs cultured with an HIV-derived peptide or no added peptide were used as controls. Comparisons of means (±SEM) between groups (pre-vaccination or post-vaccination PBMCs) are made using an unpaired t test.
FIG. 6. IFNγ response of PBMCs isolated from patients with prostate cancer who had responded to the therapy and were categorised as being ‘responders’ on the basis of the criteria detailed above after re-stimulation with PAP-115-123 epitope peptide (1 μg), as determined using the ELISPOT assay. PBMCs isolated pre-vaccination (black bars) and post-vaccination (red bars) are compared here. Patient samples are represented as p10, p12, p15 etc. The cryopreserved PBMCs were washed and rested overnight, at which time 4×10^4 cells were added to each well of an ELISPOT plate. PAP-115-123 epitope peptide (1 μg) was added to each well and the cells cultured for 48 hours. The plates were then washed according to manufacturer's protocol. PBMCs cultured with HIV-derived peptide or no added peptide were used as controls. Comparisons of means (±SEM) between groups (pre-vaccination or post-vaccination PBMCs) are made using an unpaired t test.
FIG. 7. Fold change in the IFNγ response generated by PBMCs isolated from patients with prostate cancer from the Norway Clinical Trial after restimulation with PAP-115-123 epitope peptide (10 μg), as determined using the ELISPOT assay. Patients that were reported to have responded to the treatment (p10, p12, p15, p19, p101, p102, p107, p108) are indicated by red bars. […] The cryopreserved PBMCs were washed and rested overnight, at which time 4×10^4 cells were added to each well of an ELISPOT plate. PAP-115-123 epitope peptide (10 μg) was added to each well and the plates cultured for 48 hours. The plates were then washed according to the manufacturer's protocol. PBMCs cultured with HIV-derived peptide or no added peptide were used as control.
The presence of circulating PAP-115-123 specific T cells in PBMCs isolated from patients with prostate cancer following treatment with DCs that had been transfected with mRNA isolated from the prostate cancer cell lines (DU145, LNCaP and PC3) as part of a Norwegian Clinical Trial which was performed by Professor Gustav Gaudernack was determined on the basis of their responsiveness to PAP-derived peptides. In the trial, DCs were isolated from patients with prostate cancer and cultured DCs were transfected with mRNA isolated from the prostate cancer cell lines (DU145, LNCaP and PC3). The matured DCs were re-infused back into the patients (FIG. 4). […]

Sequence: SAMTNLAAL [PAP-115-123]
- number of spots, pre-vaccination samples (1 μg peptide): 10-30 spots
- number of spots, post-vaccination samples (1 μg peptide, patients p12, p19, p101, p102, p107, p108): 60-140 spots
- number of spots, pre-vaccination samples (10 μg peptide): 10-30 spots
- number of spots, post-vaccination samples (10 μg peptide, patients p12, p15, p19, p102, p107, p108): 60-160 spots
- fold decrease in IFNγ response post vs pre vaccination, non-responders (4 non-responder patients, 10 μg peptide, ELISPOT): 2-12 fold and 2-10 fold
- fold higher peptide-specific IFNγ response post vs pre vaccination, responders (8 responder patients, 10 μg peptide, ELISPOT): 2-4 fold
- post-vaccination samples with significantly higher peptide-specific IFNγ response than pre-vaccination (1 μg peptide): 6
- post-vaccination samples with significantly higher peptide-specific IFNγ response than pre-vaccination (10 μg peptide): 6
